{"source": "patent US20260102427A1", "about": "“COMPOSITIONS OF NANOPARTICLES FOR TREATMENT OF NEUROPATHIC PAIN” (NANOBIOTIX S.A., priority 2022, published 2026)", "format_in_all_cases": "in vivo, rat", "key": {"[1]": {"tested_on": "oxaliplatin-induced mechanical allodynia", "test": "Example 5: mechanical allodynia (von Frey PWT) in oxaliplatin chemotherapy-induced peripheral neuropathy model", "conditions": "Pregabalin 30 mg/kg p.o. each test day, tested 2 hr post dose", "experimental": "The aim of this study was to investigate the effect of a single intraplantar treatment with Nanoparticles from Example 1 (NP1B) at the dose of 11 g/L, Nanoparticles from Example 2 (NP2B) at 53 g/L, Nanoparticles from Example 3 (NP20B) at 57 g/L, and Nanoparticles from Example 4 (NP20A) at 59 g/L, each in 20 μL of injection volume, on the mechanical allodynia (as assessed using von Frey) that occurs following systemic administration of oxaliplatin in the rat.\nExperimental subjects: Seventy-two (72) adult male Sprague-Dawley rats were used for this study. […]\n(§1) Static mechanical (tactile) allodynia evaluation: Measurement of paw withdrawal threshold (PWT) was achieved using calibrated (force; g) von-Frey monofilaments (Touch-Test Sensory Evaluator; Scientific Marketing Associates) applied to the plantar surface of the hind paw. Withdrawal threshold was determined by increasing and decreasing stimulus intensity and estimated using Dixon's up-down method. […]\nBaseline readings for latency to withdrawal (sec) were assessed on three consecutive days (Day −3, Day −2 and Day −1). […]\nMechanical allodynia was subsequently re-assessed 2-3 times per week following injection, out to D26 post-oxaliplatin. […]"}, "[2]": {"tested_on": "STZ-induced mechanical allodynia", "test": "Example 7: mechanical allodynia (von Frey PWT) in streptozotocin diabetes-induced peripheral neuropathy model", "conditions": "Pregabalin 30 mg/kg p.o. 2 hr prior to each Von Frey test", "experimental": "The aim of the study is to investigate the effect of a single intraplantar treatment with Nanoparticles from Example 3 at the doses of 117 g/L in 20 μL of injection volume, 58 g/L in 20 μL of injection volume, and 18 g/L in 10 μL of injection volume on the mechanical allodynia (as assessed using von Frey) that occurs following systemic administration of Streptozocin in the rat.\nExperimental subjects: Sixty-six (66) adult male Sprague-Dawley rats (180-210 g) were used for this study. […]\nConfirmation of hyperglycaemia: On Day 7 (D7) one drop of tail vein blood was obtained by a needle prick on the conscious rats. The blood glucose levels were measured in one drop of blood using an Exactive Vital (MictoTech Medical) blood glucose monitor. […]\nas §1, with “allodynia:” for “allodynia evaluation:”, “of” for “of paw”, “threshold” for “threshold (PWT)”, “method (Dixon, 1980; Chaplan et al., 1994).” for “method.”\nVon Frey readings are taken at baseline (pre-STZ), at D9 and at D11 post-STZ (neuropathic/allodynia baseline) and 2 hours post dose on D14. Von-Frey readings are repeated twice per week up to 3 weeks post-STZ (1 week post nanoparticles dosing). […]"}, "[3]": {"tested_on": "oxaliplatin-induced mechanical allodynia", "test": "Example 6: mechanical allodynia (von Frey PWT) in oxaliplatin CIPN model, dose effect, left (treated) vs right (vehicle) paw", "conditions": "Pregabalin 30 mg/kg p.o. each test day; both left and right paws", "excerpt": "Animals were allowed to recover from transportation for at least one week before commencing experiments.\nData is presented as mean±SEM."}}, "data": [{"smiles": "CC(C)C[C@H](CN)CC(=O)O", "note": "[Pregabalin]", "values": [{"measurement": "PWT, allodynic response (positive control)", "setting": "[1]", "value": "rescued the allodynic response and recovered the PWT to the healthy baseline levels"}, {"measurement": "PWT levels compared to “STZ/Vehicle” group", "setting": "[2]", "value": "significantly different from the “STZ/Vehicle” group on all days tested"}, {"measurement": "PWT levels compared to ‘Vehicle/Vehicle’ group (not neuropathic)", "setting": "[3]", "value": "not significantly different from the ‘Vehicle/Vehicle’ group (not neuropathic) on any of the test days"}]}]}
